This note sets out measurements from US20210321638A1, “ANIMAL FEED AND METHODS TO PROVIDE SUCH FEED” (Nutreco Nederland B.V., priority 2016, published 2021).

Test [1] concerns Salmonella typhimurium. The test can be described thus: in vitro adhesion of bacteria to coated 96-well plate, time to onset OD600. It counts as cell-based. To be noted: Table 4, Example 4; total amount of agents the same in all experiments; control 6.95. The method, then:
Example 1 describes an in vitro model study for assessing the effect of ABM mycelium on bacterial adhesion. In this method the adhesion of Salmonella typhimurium to ABM mycelium is assessed.
(§1) Use was made of a 96-well plate on which the ABM mycelium was coated. For this, the ABM mycelium (in this and each case below a fermented rye product was actually used, in which product the amount of ABM mycelium was about 15% w/w) was suspended in PBS to a final concentration of 1% (w/v) and mixed thoroughly. Subsequently the suspension was centrifuged to remove insoluble material. Thereafter, the supernatant was used for coating the wells of the microtiter plate. For the adhesion assessment, a Salmonella typhimurium suspension was added to the microtiter plate. The plate was then incubated for 30 minutes and after this incubation step washed with PBS. Subsequently growth medium was added to the wells and the time to onset OD600 value was determined. The optical density (OD) measurement was used as a tool to compare numbers of adhered bacteria to the coated wells of the 96-well plate with different compounds. The initial cell density of adhered bacteria correlates with the time-dependent detection of the growth by optical density measurement.
In a second in vitro study, the test was repeated, and additionally the effect on Salmonella enteritidis and E. coli was measured. […]

Test [2] has as its system E. coli. The test is described as above. In kind it is cell-based, Escherichia coli.
From the text: as §1
In a second in vitro study, the test was repeated, and additionally the effect on Salmonella enteritidis and E. coli was measured. Also, the amount of ABM mycelium was used in the full amount (see above; denoted “100%”), half of this amount (“50%”) and a quarter of this amount (“25%”). […]

With `OC[C@H]1O[C@@H](O[C@H]2[C@H](O)[C@H](O)C(O)O[C@@H]2CO)[C@@H](O)[C@@H](O)[C@@H]1O` (stereo partly drawn) [β-1,4-mannobiose], in test [1], the “time to onset OD600, S. typhimurium” value was determined as 5.90 h. In addition, the “effect on the adhesion of E. coli / onset OD600, in words” value in test [2] (Example 4, compared to the control and β-1,4-mannobiose alone) is “does not have an effect”. Also, in test [2] (Table 4, Example 4, total amount of agents the same in all experiments, control 7.10), the “time to onset OD600, E. coli” value amounted to 7.30 h.
